Source: ChEMBL document CHEMBL5518199, “Discovery of Effective Dual PROTAC Degraders for Neurodegenerative Disease-Associated Aggregates” (J Med Chem, 2024)

Experiments:
[1] = in vivo; conditions: C57BL/6, mouse, brain, iv, 8 mg/kg
[2] = in vivo; conditions: C57BL/6, mouse, plasma, iv, 8 mg/kg
[3] = in vivo; conditions: C57BL/6, mouse, brain, iv, 8 mg/kg; remark: listed apart in the source
[4] = in vivo; conditions: C57BL/6, mouse, iv, 8 mg/kg
[5] = in vivo; conditions: rat, iv, 8 mg/kg
[6] = in vivo; conditions: rat, iv, 8 mg/kg; remark: listed apart in the source
[7] = in vivo; conditions: C57BL/6, mouse, brain, iv, 8 mg/kg; remark: listed apart in the source
[8] = in vivo; conditions: C57BL/6, mouse, brain, iv, 8 mg/kg; remark: listed apart in the source
[9] = in vivo; conditions: C57BL/6, mouse, plasma, iv, 8 mg/kg; remark: listed apart in the source
[10] = in vivo; conditions: C57BL/6, mouse, iv, 8 mg/kg; remark: listed apart in the source
[11] = in vivo; conditions: C57BL/6, mouse, iv, 8 mg/kg; remark: listed apart in the source
[12] = in vitro; conditions: C57BL/6, mouse, plasma
[13] = in vivo; conditions: rat, iv, 8 mg/kg; remark: listed apart in the source
[14] = in vivo; conditions: rat, iv, 8 mg/kg; remark: listed apart in the source
[15] = in vivo; conditions: C57BL/6, mouse, iv, 8 mg/kg; remark: listed apart in the source
[16] = in vivo; conditions: C57BL/6, mouse, plasma, iv, 8 mg/kg; remark: listed apart in the source
[17] = in vivo; conditions: rat, iv, 8 mg/kg; remark: listed apart in the source
[18] = in vitro; conditions: C57BL/6, mouse, brain

## Cc1ccc2nc(-c3ccc(NCCOCCOCCOCCNC(=O)COc4cccc5c4C(=O)N(C4CCC(=O)NC4=O)C5=O)cc3)sc2c1 (stereo not drawn)
[1]
  concentration at 168.25 h: 2700 nM
[2]
  half-life at 24 h: 3.24 h
[3]
  concentration at 0.25 h: 1730 nM
[4]
  AUC(0-t) at 24 h: 109 µM·h
[5]
  AUC(0-t) at 24 h: 65.4 µM·h
[6]
  Vd at 24 h: 0.92 L/kg
[7]
  AUC at 24 h: 6.02 µM·h
[8]
  half-life at 24 h: 4.21 h
[9]
  AUC at 24 h: 109 µM·h
[10]
  AUC(0-inf) at 24 h: 109 µM·h
[11]
  Vd at 24 h: 0.48 L/kg
[12]
  fraction unbound at 24 h: 0.442
[13]
  clearance at 24 h: 2 mL/min/kg
[14]
  half-life at 24 h: 3.78 h
[15]
  clearance at 24 h: 1.68 mL/min/kg
[16]
  concentration at 0.25 h: 67200 nM
[17]
  AUC(0-inf) at 24 h: 65.5 µM·h
[18]
  fraction unbound at 24 h: 0.397
